# Measurements reported in US20110086797A1, “CONTROL OF SPORE GERMINATION” (priority 2007, published 2011).
# “Also recorded” adds a separate entry of the source. Where two headings read alike, the source gives them in different places.
# Columns and labels:
# B. subtilis spores [1] = assay: Measurement of germination by fluorescence (Syto-9 dye); type: cell-based, Bacillus subtilis; settings: 1 μM Bryostatin
# [2] = tested on: B. subtilis wild type spores; assay: Sensitivity to antibiotic (tetracycline) after stimulation of germination; settings: for % Loss in viable cells: germinant 60 min at 37° C. (muropeptide 40 μM, bryostatin 1 μM), then tetracycline 10 μg/ml 60 min, relative to no germinant
# B. subtilis spores [3] = assay: Measurement of germination by loss of heat resistance; type: cell-based, Bacillus subtilis
molecule,measurement,setting,value
CCC/C=C/C=C/C(=O)O[C@H]1/C(=C/C(=O)OC)C[C@H]2C[C@H]([C@@H](C)O)OC(=O)C[C@H](O)C[C@@H]3C[C@H](OC(C)=O)C(C)(C)[C@](O)(C[C@@H]4C/C(=C/C(=O)OC)C[C@H](/C=C/C(C)(C)[C@]1(O)O2)O4)O3 [Bryostatin],Fluorescence Germination Results,"B. subtilis spores [1]; Wild-type spores, 5' at 37° C., excitation/emission 485/530",14331
same,Fluorescence Germination Results,"B. subtilis spores [1]; ΔprKC (kinase mutant) spores, 5' at 37° C., 485/530",5208
same,Fluorescence Germination Results,"B. subtilis spores [1]; ΔprpC (phosphatase mutant) spores, 5' at 37° C., 485/530",13183
same,Fluorescence Germination Results,"B. subtilis spores [1]; ΔprpC, PrpC (phosphatase mutant overexpressing phosphatase from an ectopic site) spores, 485/530",5529
same,% Loss in viable cells,[2],32 ± 7%
same,sensitivity of treated spores to antibiotics (result in words),"[2]; wild type B. subtilis spores, tetracycline and spectinomycin",become sensitive to the ribosomal antibiotics tetracycline and spectinomycin
same,germination of ΔprkC spores (result in words),B. subtilis spores [3],had no effect
same,maximum % germination,"B. subtilis spores [3]; […], 1.0 μM bryostatin, 60 min",~40%
Ala-D-γ-Glu-Dpm tripeptide,germination of wild type spores (result in words),B. subtilis spores [3]; wild type B. subtilis spores,failed to induce germination
Teleocidin,germination of wild type spores (result in words),B. subtilis spores [3],able to stimulate germination of only the wildtype spore; also recorded: stimulated germination of wildtype spores
same,germination of ΔprkC spores (result in words),B. subtilis spores [3],able to stimulate germination of only the wildtype spore
"CCCCCCCCCCCCCC(=O)O[C@@H]1[C@@H](C)[C@@]2(O)[C@@H](C=C(CO)C[C@]3(O)C(=O)C(C)=C[C@@H]23)[C@@H]2C(C)(C)[C@]12OC(C)=O [PMA, phorbol-12-myristate-13-acetate]",germination of wild type spores (result in words),B. subtilis spores [3],chemically induces germination
C[C@@H](N)C(=O)O [D-alanine],inhibition of cell wall / peptidoglycan dependent germination (result in words),B. subtilis spores [3],did not block cell wall dependent germination
C[C@H](N)C(=O)O [L-alanine],germination of ΔprkC spores (result in words),B. subtilis spores [3],still responded
same,germination of ΔprkC spores (result in words),B. subtilis spores [3]; listed as alanine,still respond to alanine
CC(=O)N[C@H]1C(O)O[C@H](CO)[C@@H](O)[C@@H]1O[C@H](C)C(=O)N[C@@H](C)C(=O)N[C@H](CCC(=O)O)C(N)=O (mixture of isomers) [muramyl dipeptide],germination of wild type spores (result in words),B. subtilis spores [3],failed to induce germination
CN[C@@H]1C[C@H]2O[C@@](C)([C@@H]1OC)n1c3ccccc3c3c4c(c5c6ccccc6n2c5c31)C(=O)NC4 [staurosporine],germination with increasing amounts of peptidoglycan in the presence of inhibitor,"B. subtilis spores [3]; 10 pM staurosporine, […]",did not increase germination
same,concentration as low as which significantly reduced peptidoglycan-dependent germination,"B. subtilis spores [3]; […], 100 ng/ml B. subtilis peptidoglycan, 60 min",10 pM
same,effect on L-alanine germination,B. subtilis spores [3]; data not shown,unaffected
O=C([O-])c1cccc(C(=O)[O-])n1.[Ca+2] [Ca^2+-dipicolinic acid],germination of ΔprkC spores (result in words),B. subtilis spores [3],still responded
GlcNAc-MurNAc tripeptide [Muropeptide],% Loss in viable cells,[2],72 ± 3%
same,concentration as low as which led to germination,B. subtilis spores [3],1 µM
same,germination of ΔprkC spores (result in words),B. subtilis spores [3],failed to germinate
